Experimental findings from US20110112103A1, “5-HYDROXYPYRIMIDINE-4-CARBOXAMIDE COMPOUND” (DAIICHI SANKYO COMPANY, LIMITED, priority 2008, published 2011) are described below.

Test system in one data set: not given
Test: not given
Conditions: not given
Consider `Cc1nc(CC2(C)CCN(c3ccc(F)cc3)CC2)nc(C(=O)NCC(=O)O)c1O` [Example 186, {[(2-{[1-(4-Fluorophenyl)-4-methylpiperidin-4-yl]methyl}-5-hydroxy-6-methylpyrimidin-4-yl)carbonyl]amino}acetic acid], for which the melting point lay in the range of 140 to 141 °C.
On the same count and under the same terms, in the case of `Cc1nc(C[C@H]2OC[C@H](c3ccc(F)cc3)CO2)nc(C(=O)NCC(=O)O)c1O` [Example 196, {[(2-{[trans-5-(4-Fluorophenyl)-1,3-dioxan-2-yl]methyl}-5-hydroxy-6-methylpyrimidin-4-yl)carbonyl]amino}acetic acid] it was 209 °C.

The subject of another data set is human liver cancer-derived cell line Hep3B. As to the kind of experiment: in vitro erythropoietin (EPO) induction activity in Hep3B cells, EPO ELISA of culture supernatant. It counts as cell-based. The settings on record: test compound 12.5 μM, 24 hours at 37° C., multiple against EPO concentration in control (0.5% DMSO). How it is done: The in vitro erythropoietin (EPO) induction activity of test compounds was evaluated using human liver cancer-derived cell line Hep3B (ATCC, Manassas, Va.). Hep3B cells were cultured overnight at 37° C. in Dulbecco's Modified Eagle's Medium (DMEM) in the presence of 10% fetal bovine serum (FBS) (24-well plate, 1.0×10^5 cells/well). After replacing with fresh DMEM (+10% FBS) containing a test compound dissolved in 0.5% dimethyl sulfoxide (DMSO) (prepared to a concentration of 12.5 μM) or a solvent control (0.5% DMSO), the cells were cultured for 24 hours at 37° C. After recovering the culture supernatant, EPO concentration in the culture supernatant was quantified using a human EPO ELISA kit (StemCell Technologies). The compounds of Examples 1, 2, 5, 20, 43, 56, 100, 103, 109, 167, 173, 181, 193 and 198 were used for the test compounds. The EPO concentration of each Example was expressed as a multiple against the EPO concentration in the control.
In general terms: In an ELISA, binding on a coated surface is turned into a signal by an enzyme label.
In turn, `Cc1nc(CC2CCN(c3ccc(C(C)(C)C)cc3)CC2)nc(C(=O)NCC(=O)O)c1O` [Example 1] gave a fold induction at 12.5 µM of 98.
Turning to `Cc1nc(CC2CCN(c3ccccc3)CC2)nc(C(=O)NCC(=O)O)c1O` [Example 2, [({5-Hydroxy-6-methyl-2-[(1-phenylpiperidin-4-yl)methyl]pyrimidin-4-yl}carbonyl)amino]acetic acid], the fold induction at 12.5 µM was 37.
In the case of `Cc1nc(CC2CCN(c3ccc(F)cc3)CC2)nc(C(=O)NCC(=O)O)c1O` [Example 5, {[(2-{[1-(4-Fluorophenyl)piperidin-4-yl]methyl}-5-hydroxy-6-methylpyrimidin-4-yl)carbonyl]amino}acetic acid], the fold induction at 12.5 µM was found to be 29.
Same read-out and setting: the result for `Cc1nc(CC2CCN(c3ccc(C(F)(F)F)cc3)CC2)nc(C(=O)NCC(=O)O)c1O` [Example 20, ({[5-Hydroxy-6-methyl-2-({1-[4-(trifluoromethyl)phenyl]piperidin-4-yl}methyl)pyrimidin-4-yl]carbonyl}amino)acetic acid] reads 127; that for `Cc1nc(CC2CCN(c3ccc(-c4ccccc4)cc3)CC2)nc(C(=O)NCC(=O)O)c1O` [Example 43, {[(2-{[1-(Biphenyl-4-yl)piperidin-4-yl]methyl}-5-hydroxy-6-methylpyrimidin-4-yl)carbonyl]amino}acetic acid], 262.
On the same count and under the same terms, in the case of `Cc1nc(CC2CCN(c3ccc(Cc4ccccc4)cc3)CC2)nc(C(=O)NCC(=O)O)c1O` [Example 56, {[(2-{[1-(4-Benzylphenyl)piperidin-4-yl]methyl}-5-hydroxy-6-methylpyrimidin-4-yl)carbonyl]amino}acetic acid] it was 158; in that of `Cc1nc(CC2CCN(c3ccc(-c4ccccn4)cc3)CC2)nc(C(=O)NCC(=O)O)c1O` [Example 100, ({[5-Hydroxy-6-methyl-2-({1-[4-(pyridin-2-yl)phenyl]piperidin-4-yl}methyl)pyrimidin-4-yl]carbonyl}amino)acetic acid], 104; in that of `Cc1nc(CC2CCN(c3ccc(-c4cccnc4)cc3)CC2)nc(C(=O)NCC(=O)O)c1O` [Example 103, ({[5-Hydroxy-6-methyl-2-({1-[4-(pyridin-3-yl)phenyl]piperidin-4-yl}methyl)pyrimidin-4-yl]carbonyl}amino)acetic acid], 100.
`Cc1nc(CC2CCN(c3ccc(-c4nccs4)cc3)CC2)nc(C(=O)NCC(=O)O)c1O` [Example 109, ({[5-Hydroxy-6-methyl-2-({1-[4-(1,3-thiazol-2-yl)phenyl]piperidin-4-yl}methyl)pyrimidin-4-yl]carbonyl}amino)acetic acid]: the fold induction at 12.5 µM worked out at 142.
On the same count and under the same terms, the result for `Cc1nc(CC2=CCN(c3ccc(C(C)(C)C)cc3)CC2)nc(C(=O)NCC(=O)O)c1O` [Example 167, {[(2-{[1-(4-tert-Butylphenyl)-1,2,3,6-tetrahydropyridin-4-yl]methyl}-5-hydroxy-6-methylpyrimidin-4-yl)carbonyl]amino}acetic acid] reads 225.
The compound `Cc1nc(Cc2ccc(-c3ccc(C(C)(C)C)cc3)nc2)nc(C(=O)NCC(=O)O)c1O` [Example 173, {[(2-{[6-(4-tert-Butylphenyl)pyridin-3-yl]methyl}-5-hydroxy-6-methylpyrimidin-4-yl)-carbonyl]amino}acetic acid] had a fold induction at 12.5 µM of 184.
With `Cc1nc(Cc2cnc(-c3ccc(C(C)(C)C)cc3)nc2)nc(C(=O)NCC(=O)O)c1O` [Example 181, {[(2-{[2-(4-tert-Butylphenyl)pyrimidin-5-yl]methyl}-5-hydroxy-6-methylpyrimidin-4-yl)-carbonyl]amino}acetic acid], the fold induction at 12.5 µM was 155.
`CSc1nc(CC2CCN(c3ccc(C(C)(C)C)cc3)CC2)nc(C(=O)NCC(=O)O)c1O` [Example 193, ({[2-{[1-(4-tert-Butylphenyl)piperidin-4-yl]methyl}-5-hydroxy-6-(methylsulfanyl)pyrimidin-4-yl]carbonyl}amino)acetic acid] registered a fold induction at 12.5 µM of 147.
Same read-out and setting: the result for `Cc1nc(C[C@H]2OC[C@H](c3ccc(-c4ccccc4)cc3)CO2)nc(C(=O)NCC(=O)O)c1O` [Example 198, {[(2-{[trans-5-(Biphenyl-4-yl)-1,3-dioxan-2-yl]methyl}-5-hydroxy-6-methylpyrimidin-4-yl)-carbonyl]amino}acetic acid] reads 108.

Broadly, the melting point is the temperature of the solid-liquid transition. As a reminder, the fold induction is the signal under treatment as a multiple of the control signal. High values mean a large rise in signal, low ones little rise in signal.
